Experimental findings from US20240269302A1, “NANOPARTICLE COMPRISING PEPTIDE-LIPID CONJUGATE FOR DELIVERING OLIGONUCLEOTIDE INTO TARGET CELL AND PHARMACEUTICAL COMPOSITION COMPRISING SAME” (NIBEC CO., LTD., priority 2021, published 2024) are described below.

This data set relates to KRAS mRNA. Briefly: Reduction of KRAS mRNA by KRAS siRNA delivered into cells, quantitative real-time PCR. The data set is classed as cell-based, human. Particulars: H358 cells, 100 nM, 16 hours, qRT-PCR, 18S rRNA as housekeeping gene.

Procedure: H358 cells were seeded at a density of 70% in a 6-well plate. After 16 hours, cell starvation was performed overnight with DMEM containing 0.5% FBS. The cells were treated with a medium containing nanoparticles comprising KRAS siRNA and a peptide-lipid conjugate at a concentration of 100 nM for 16 hours. As a control, 100 nM of siRNA mixed with Lipofectamine was used.
Quantitative real-time PCR was performed in the following manner. For mRNA quantification, total RNA was isolated using the Qiagen RNeasy kit. cDNA was synthesized using Verso cDNA kit (Thermo Scientific) using 500 ng RNA. mRNA values were measured with a 7500 Fast Real-Time PCR System (Applied Biosystems) based on SYBR Green.
18S rRNA was used as a housekeeping gene (control gene). PCR was performed using reverse-transcribed RNA and 100 ng/μL of sense and antisense primers (total volume 20 μL) were used. 40 cycles were performed and each cycle included denaturation at 95° ° C. for 15 seconds, annealing for 1 minute, and extension at 60° ° C.

Turning to “siRNA alone: siRNA that inhibits the expression of KRAS (SEQ ID NO: 19 sense, SEQ ID NO: 20 antisense), without carrier (sense CAGCUAAUUCAGAAUCAUU; antisense AAUGAUUCUGAAUUAGCUG; listed as RNA, chemistry not given here)”, the “KRAS mRNA” value is listed as “no effect”.
